The subject of data set [1] is RSV. In words: RSV replication in A549 epithelial cell cultures (number of infected cells, immunofluorescence). The class given is cell-based, respiratory syncytial virus (A2) Long strain. As to conditions: for IC50: read-out: IC50 on RSV replication (concentration needed to give a 50% reduction in number of infected cells/well).
Data set [2] deals with influenza virus. Description: microbe, parasite or virus in culture. The class given is cell-based, Human influenza virus A/Puerto Rico/8/34 (H1N1).
For data set [3], the system named is NO production by RSV infected A549 epithelial cells. Description: Nitric oxide released into cell culture supernatant of RSV infected cells (chemiluminescence). The class given is cell-based, human. As to conditions: for NO production by these cells: epithelial cells, qualitative statement.
Data set [4] concerns A549 cells. Description: Cytotoxicity assay (LDH in cell culture supernatant). The class given is cell-based, human. As to conditions: uninfected and RSV infected A549 cells, concentration series. Here is the method: To determine the level of cell damage following infection, 50 μl of the culture supernatant from each well were transferred to the corresponding well in 96 well microtitre plate. The LDH activity of the supernatant was measured by a LDH Assay kit, according to the manufacturer's instructions (Sigma, UK). 100 μl of LDH Assay solution was added to each well and the plate was incubated for 30 min at room temperature. After incubation, the absorbance was measured at two wavelengths, 490 nm (measurement) and 690 nm (reference), using a microplate reader (BioRad Laboratories, Hercules, Calif., USA). The percent LDH release was calculated by measuring the LDH content of lysed cells that remained attached to the plate.
To determine whether the concentration series of 1400 W we used was toxic to the A549 cells, and to eliminate the possibility that the reduction in viral antigen was due to toxicity, the concentration of lactate dehydrogenase (LDH) in the cell culture supernatant was measured. LDH is an enzyme that is only released by cells when the cell membrane integrity is reduced. Therefore the concentration of LDH in the cell culture supernatant is directly correlated to cell death.

The test system of data set [5] is RSV. In words: Mouse infection model: viral load of the lungs (plaque assay). As to conditions: 10 mg/kg i.p. every 12 h. The class given is in vivo, balb/c mice.
The subject of data set [6] is total lung NOS activity. Description: Mouse infection model: nitrite concentration of lung homogenate. The following applies: 10 mg/kg i.p. every 12 h. The class given is in vivo, balb/c mice.
Data set [7] has as its system respiratory syncytial virus. As to conditions: mouse model of respiratory syncytial virus; cited from earlier work.
Where [8] appears, read: A549 cells, RPMI (1.15 mM L-Arg), after 24 h, ± 95% CI.
[9] abbreviates: epithelial cells, qualitative statement.
The mark [10] stands for this setting: RSV infected mice, day 3, 10 mg/kg.
Where [11] appears, read: RSV infected mice, day 3, listed as 1400 W, 10 mg/kg.

“Also recorded” adds a separate entry of the source. Where two headings read alike, the source gives them in different places. Marks after values point to notes of the source that are not given here.

As to `N=C(N)NCCC[C@H](N)C(=O)O` [L-arginine], in data set [1] (setting [8]), the “IC50 on RSV replication (concentration needed to give a 50% reduction in number of infected cells/well)” value is “No inhibitory”.

`CC(=O)N[C@H](C(=O)O)C(C)(C)SN=O` (racemic) [SNAP, S-nitroso-N-acetylpenicillamine]: in data set [1] (setting [9]), the “viral (RSV) replication” value is “did not affect”.

Regarding `COC(=O)[C@@H](N)CCCNC(=N)N[N+](=O)[O-]` [L-NAME], the “IC50 on influenza virus replication (concentration needed to give a 50% reduction in number of infected cells/well)” value in data set [2] (setting [8]) is listed as “No effect”. Besides, the “IC50 on RSV replication (concentration needed to give a 50% reduction in number of infected cells/well)” value in data set [1] (setting [8]) is on record as “No effect”. Besides, in data set [1] (setting [9]), the “viral (RSV) replication” value is “did not inhibit; also recorded: not to inhibit”.

On to `NCCCNCCCCN(CCCN)/[N+]([O-])=N/O` [Spermine (NONOate)], for which the IC50 was found to be 600 ± 400 µM in data set [2] (read-out: IC50 on influenza virus replication (concentration needed to give a 50% reduction in number of infected cells/well)) and 1500 ± 500 µM in data set [1]. Also, the “viral (RSV) replication” value in data set [1] is listed as “inhibit”.

With `CC(=N)NCc1cccc(CN)c1` [1400W], the IC50 stood at 3700 ± 1000 µM in data set [2] (A549 cells, DMEM (0.35 mM L-Arg), after 24 h, ± 95% CI, read-out: IC50 on influenza virus replication (concentration needed to give a 50% reduction in number of infected cells/well)); 4600 ± 900 µM in data set [2] (A549 cells, RPMI (1.15 mM L-Arg), after 24 h, ± 95% CI, read-out: IC50 on influenza virus replication (concentration needed to give a 50% reduction in number of infected cells/well)); 1100 ± 500 µM in data set [1] (setting [8]). Further, in data set [1] (A549 cells, 24 hrs, concentrations above 1 mM), the “number of RSV-infected cells” value is “significantly decreased”. In data set [1] (setting [9]), the “viral (RSV) replication” value is “strongly inhibited”. Also, the “amount of NO released into the cell culture supernatant” value in data set [3] (RSV infected A549 cells, concentrations above 1 mM) is recorded as “significant decrease”. In addition, the “NO production by these cells” value in data set [3] is “reduction”. Besides, in data set [4], the “toxicity: amount of LDH in the cell culture supernatant” value is “not affected; also recorded: not toxic”. Further, the “Log10 pfu per gram lung” value is listed as under 0.18 Log10 pfu per gram lung in data set [5] (Mock infected mice, day 3); under 0.18 Log10 pfu per gram lung in data set [5] (Mock infected mice, day 5); 0.51 ± 0.17 Log10 pfu per gram lung in data set [5] (setting [10]); “significantly lower” in data set [5] (setting [11]); 1.18 ± 0.92 Log10 pfu per gram lung in data set [5] (RSV infected mice, day 5). Moreover, the Nitrite lung homogenate in data set [6] (Mock infected mice, day 3) is listed as 26.0 (5.4) uM; in data set [6] (Mock infected mice, day 5), 21.6 (3.0) uM; in data set [6] (setting [10]), 16.7 (1.9)* uM; in data set [6] (setting [11]) it was “significantly reduced”; in data set [6] (RSV infected mice, day 5), 23.7 (3.3) uM.

On to `CC1CCN=C(N)S1` (stereo not drawn) [AMT, 2-amino-5,6-dihydro-6-methyl-4H-1,3-thiazine], for which the viral titres result in data set [7] is listed as “increase”.

With `COc1ccnc(CCc2nc3ncccc3[nH]2)c1` [BYK191023], the IC50 was determined as 4800 ± 400 µM in data set [2] (unidentified influenza virus, A549, 24 h, read-out: IC50 on influenza virus replication (concentration needed to give a 50% reduction in number of infected cells/well), A549 cells, DMEM (0.35 mM L-Arg), after 24 h, ± 95% CI); 4300 ± 800 µM in data set [2] (unidentified influenza virus, A549, 24 h, read-out: IC50 on influenza virus replication (concentration needed to give a 50% reduction in number of infected cells/well), A549 cells, RPMI (1.15 mM L-Arg), after 24 h, ± 95% CI); 1100 ± 500 µM in data set [1] (human respiratory syncytial virus, A549 cells, RPMI (1.15 mM L-Arg), after 24 h, ± 95% CI). Also, in data set [1] (setting [9]), the “viral (RSV) replication” value is “strongly inhibited”. Also, the “NO production by these cells” value in data set [3] was “reduction”.

Regarding `Cl.N=c1c[n+](N2CCOCC2)[n-]o1` [SIN-1, 3-morpholinosydnonimine hydrochloride], in data set [1] (setting [9]), the “viral (RSV) replication” value is on record as “did not affect”.

The values are drawn from patent publication US20180214430A1, “Selective Inhibitors Of i-NOS For Use Against Viral Infection” (priority 2015, published 2018).
